Assay results reported in patent US12606566B2, “Substituted cyclopenta[4,5]pyrrolo[1,2-a]pyrazines as bruton's tyrosine kinase inhibitors” (Shanghai Synergy Pharmaceutical Sciences Co., Ltd., priority 2020, dated 2026).

Tests used:
[1] = test system: tumour cells (A20 5E6 cells); experiment: Inhibitory effect on tumour cell proliferation (CCK8); assay type: cell-based; conditions: CCK8 absorbance, read-out: Inhibitory effect of the compound on cell proliferation IC50
Procedure: This experiment was to determine the effect of the compound on cell proliferation.
To determine the inhibitory effect of the compound on the proliferation of tumour cells, tumour cells (A20 5E6 cells) were cultured to a certain amount and seeded into 96-well plates. […] The absorbance value was measured after the addition of CCK8 and 2 h incubation to determine the inhibitory effect of the compound on cell proliferation. The IC50 value of the compound was obtained by data fitted with Graphpad.

BTK kinase = BTK kinase (Homo sapiens, UniProt Q06187); experiment: BTK kinase inhibitory activity, mobility shift method; assay type: biochemical; conditions: compound co-incubated with the enzyme for 30 minutes
Sequence of BTK kinase (Q06187 whole entry): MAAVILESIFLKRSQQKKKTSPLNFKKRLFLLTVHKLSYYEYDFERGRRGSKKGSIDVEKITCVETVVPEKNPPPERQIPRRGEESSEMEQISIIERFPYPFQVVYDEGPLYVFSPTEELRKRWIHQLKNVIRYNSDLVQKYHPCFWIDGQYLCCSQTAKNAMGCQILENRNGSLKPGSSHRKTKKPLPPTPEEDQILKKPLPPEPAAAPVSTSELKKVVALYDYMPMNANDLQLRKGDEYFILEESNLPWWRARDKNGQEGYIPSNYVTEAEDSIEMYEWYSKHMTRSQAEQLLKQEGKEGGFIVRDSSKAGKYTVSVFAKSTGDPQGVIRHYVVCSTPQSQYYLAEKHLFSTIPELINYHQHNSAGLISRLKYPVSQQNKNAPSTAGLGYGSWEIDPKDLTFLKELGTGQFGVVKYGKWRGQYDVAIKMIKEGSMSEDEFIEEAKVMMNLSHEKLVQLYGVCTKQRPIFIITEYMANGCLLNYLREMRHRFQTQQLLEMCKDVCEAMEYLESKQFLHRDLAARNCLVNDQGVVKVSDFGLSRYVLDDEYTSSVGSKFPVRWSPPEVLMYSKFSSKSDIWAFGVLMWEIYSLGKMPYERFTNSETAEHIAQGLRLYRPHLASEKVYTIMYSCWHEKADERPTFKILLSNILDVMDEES
Procedure: The BTK kinase inhibitory activity of the compound was determined using a mobility shift method with the reaction system (kinase solution, ATP, kinase substrate2). The compound was co-incubated with the enzyme for 30 minutes, and then the conversion rate was read using the Caliper EZ reader. The compound inhibition rate was determined using the calculation formula and the data was fitted using Graphpad to derive the IC50 value for the compounds of this application.

Structure (SMILES) | IC50 [1] [nM] | IC50 (BTK kinase) [nM]
Cn1cc(-c2ccnc(N3CCn4c5c(c(F)c4C3=O)CC(C)(C)C5)c2CO)cc(Nc2ccc(N3CCC4(CC3)COC4)cn2)c1=O [Example H11, 2-(5-((5-(2-oxa-7-azaspiro[3.5]nonan-7-yl)pyridin-2-yl)amino)-3′-(hydroxymethyl)-1-methyl-6-oxo-1,6-dihydro-[3,4′-bipyridin]-2′-yl)-9-fluoro-7,7-dimethyl-3,4,7,8-tetrahydro-2H-cyclopenta[4,5]pyrrolo[1,2-a]pyrazin-1(6H)-one] | 13 | 0.26
CN1CC2(CCN(c3ccc(Nc4cc(-c5ccnc(N6CCn7c8c(c(F)c7C6=O)CC(C)(C)C8)c5CO)cn(C)c4=O)nc3)CC2)C1 [Example H12, 9-fluoro-2-(3′-(hydroxymethyl)-1-methyl-5-((5-(2-methyl-2,7-diazaspiro[3.5]nonan-7-yl)pyridin-2-yl)amino)-6-oxo-1,6-dihydro-[3,4′-bipyridin]-2′-yl)-7,7-dimethyl-3,4,7,8-tetrahydro-2H-cyclopenta[4,5]pyrrolo[1,2-a]pyrazin-1(6H)-one] | 13 | 0.49
Cn1cc(-c2ccnc(N3CCn4c5c(c(F)c4C3=O)CC(C)(C)C5)c2CO)cc(Nc2ccc(N3CCC4(CC3)CC(O)C4)cn2)c1=O [Example H13, 9-fluoro-2-(5-((5-(2-hydroxy-7-azaspiro[3.5]nonan-7-yl)pyridin-2-yl)amino)-3′-(hydroxymethyl)-1-methyl-6-oxo-1,6-dihydro-[3,4′-bipyridin]-2′-yl)-7,7-dimethyl-3,4,7,8-tetrahydro-2H-cyclopenta[4,5]pyrrolo[1,2-a]pyrazin-1(6H)-one] | 19 | 0.18
CN1CCN(c2ccc(Nc3cc(-c4ccnc(N5CCn6c7c(c(F)c6C5=O)CC(C)(C)C7)c4CO)cn(C)c3=O)nc2)CC1 [Example H14, 9-fluoro-2-(3′-(hydroxymethyl)-1-methyl-5-((5-(4-methylpiperazin-1-yl)pyridin-2-yl)amino)-6-oxo-1,6-dihydro-[3,4′-bipyridin]-2′-yl)-7,7-dimethyl-3,4,7,8-tetrahydro-2H-cyclopenta[4,5]pyrrolo[1,2-a]pyrazin-1(6H)-one] | 47 | 0.27
Cn1cc(-c2ccnc(N3CCn4c5c(c(F)c4C3=O)CC(C)(C)C5)c2CO)cc(Nc2ccc(N3CCN(C4COC4)CC3)cc2)c1=O [Example H15, 9-fluoro-2-(3′-(hydroxymethyl)-1-methyl-5-((4-(4-(oxetan-3-yl)piperazin-1-yl)phenyl)amino)-6-oxo-1,6-dihydro-[3,4′-bipyridin]-2′-yl)-7,7-dimethyl-3,4,7,8-tetrahydro-2H-cyclopenta[4,5]pyrrolo[1,2-a]pyrazin-1(6H)-one] | 23 | 0.68
Cn1cc(-c2ccnc(N3CCn4c5c(c(F)c4C3=O)CC(C)(C)C5)c2CO)cc(Nc2ccc(N3CCN(C4COC4)CC3)nc2)c1=O [Example H16, 9-fluoro-2-(3′-(hydroxymethyl)-1-methyl-5-((6-(4-(oxetan-3-yl)piperazin-1-yl)pyridin-3-yl)amino)-6-oxo-1,6-dihydro-[3,4′-bipyridin]-2′-yl)-7,7-dimethyl-3,4,7,8-tetrahydro-2H-cyclopenta[4,5]pyrrolo[1,2-a]pyrazin-1(6H)-one] | 47 | 0.17
